PubChem BioAssay (NCI)
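These data come from cells grown in 96-well plates and exposed to compound for 48 hours at five concentrations. GI50 is the concentration that inhibits growth by half. TGI is the concentration that stops growth completely.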

What was measured:
Experiment in all cases: inhibition of tumour cell growth, NCI panel, 48 h
[1] = tested on: 786-0 renal
[2] = tested on: HS 578T breast
[3] = tested on: MDA-MB-231 breast
[4] = tested on: SNB-75 CNS
[5] = tested on: SK-MEL-28 melanoma
[6] = tested on: SK-MEL-5 melanoma
[7] = tested on: UACC-62 melanoma
[8] = tested on: OVCAR-5 ovarian
[9] = tested on: CCRF-CEM leukemia
[10] = tested on: UO-31 renal
[11] = tested on: MOLT-4 leukemia
[12] = tested on: PC-3 prostate
[13] = tested on: M14 melanoma
[14] = tested on: KM12 colon
[15] = tested on: SNB-19 CNS
[16] = tested on: LOX IMVI melanoma
[17] = tested on: HL-60(TB) leukemia
[18] = tested on: HOP-62 NSCLC
[19] = tested on: HOP-92 NSCLC
[20] = tested on: HCT-116 colon
[21] = tested on: DU-145 prostate
[22] = tested on: CAKI-1 renal
[23] = tested on: IGROV1 ovarian
[24] = tested on: NCI-H23 lung
[25] = tested on: A498 renal
[26] = tested on: OVCAR-4 ovarian
[27] = tested on: SF-268 CNS
[28] = tested on: UACC-257 melanoma
[29] = tested on: RXF 393 renal
[30] = tested on: SF-539 CNS
[31] = tested on: BT-549 breast
[32] = tested on: HCT-15 colon
[33] = tested on: NCI/ADR-RES ovarian
[34] = tested on: OVCAR-3 ovarian
[35] = tested on: HT29 colon
[36] = tested on: A549 NSCLC
[37] = tested on: COLO 205 colon
[38] = tested on: RPMI-8226 leukemia
[39] = tested on: NCI-H522 lung
[40] = tested on: U251 CNS
[41] = tested on: NCI-H226 lung
[42] = tested on: HCC-2998 colon
[43] = tested on: EKVX NSCLC
[44] = tested on: SN12C renal
[45] = tested on: SF-295 CNS
[46] = tested on: MALME-3M melanoma
[47] = tested on: OVCAR-8 ovarian
[48] = tested on: K-562 leukemia
[49] = tested on: SK-MEL-2 melanoma
[50] = tested on: NCI-H460 lung
[51] = tested on: SR leukemia
[52] = tested on: MCF7 breast
[53] = tested on: SK-OV-3 ovarian
[54] = tested on: TK-10 renal
[55] = tested on: MDA-MB-435
[56] = tested on: ACHN renal
[57] = tested on: T-47D breast
[58] = tested on: MDA-MB-468 breast
[59] = tested on: SW-620 colon

COc1ccc2[nH]c(O)c(N=NC(=O)COc3ccc(NC(=O)Nc4ccc(Cl)cc4)cc3)c2c1
GI50 [1]: 7.32 µM
TGI [1]: 24.9 µM
GI50 [2]: 2.8 µM
TGI [2]: 13.4 µM
GI50 [3]: 1.8 µM
TGI [3]: 3.75 µM
GI50 [4]: 8.94 µM
TGI [4]: 27.7 µM
GI50 [5]: 1.81 µM
TGI [5]: 3.56 µM
GI50 [6]: 5.9 µM
TGI [6]: 18.9 µM
GI50 [7]: 2.23 µM
TGI [7]: 5.8 µM
GI50 [8]: 6.34 µM
TGI [8]: 20 µM
GI50 [9]: 5.39 µM
TGI [9]: 26.3 µM
GI50 [10]: > 100 µM
TGI [10]: > 100 µM
GI50 [11]: 9.72 µM
TGI [11]: 51.2 µM
GI50 [12]: 3.39 µM
TGI [12]: 14.9 µM
GI50 [13]: 2.61 µM
TGI [13]: 7.88 µM
GI50 [14]: 3.21 µM
TGI [14]: 13.4 µM
GI50 [15]: 3 µM
TGI [15]: 10.9 µM
GI50 [16]: 1.87 µM
TGI [16]: 3.81 µM
GI50 [17]: 23.6 µM
TGI [17]: > 100 µM
GI50 [18]: 2.54 µM
TGI [18]: 6.4 µM
GI50 [19]: 2.43 µM
TGI [19]: 7.31 µM
GI50 [20]: 2.96 µM
TGI [20]: 11.5 µM
GI50 [21]: 4.14 µM
TGI [21]: 20.7 µM
GI50 [22]: 16.6 µM
TGI [22]: 33.7 µM
GI50 [23]: 8.74 µM
TGI [23]: 21.6 µM
GI50 [24]: 2.68 µM
TGI [24]: 8.54 µM
GI50 [25]: 17.1 µM
TGI [25]: 31.8 µM
GI50 [26]: 2.94 µM
TGI [26]: 11 µM
GI50 [27]: 3.3 µM
TGI [27]: 10.4 µM
GI50 [28]: 13.1 µM
TGI [28]: 28.2 µM
GI50 [29]: 6.26 µM
TGI [29]: 22.2 µM
GI50 [30]: 2.42 µM
TGI [30]: 6.86 µM
GI50 [31]: 12.1 µM
TGI [31]: 26.6 µM
GI50 [32]: > 100 µM
TGI [32]: > 100 µM
GI50 [33]: > 100 µM
TGI [33]: > 100 µM
GI50 [34]: 2.21 µM
TGI [34]: 6.34 µM
GI50 [35]: 3.22 µM
TGI [35]: 14 µM
GI50 [36]: 8.39 µM
TGI [36]: 44.4 µM
GI50 [37]: 3.63 µM
TGI [37]: 13.2 µM
GI50 [38]: 6.58 µM
TGI [38]: 68.8 µM
GI50 [39]: 2.23 µM
TGI [39]: 5.85 µM
GI50 [40]: 4.16 µM
TGI [40]: 14.5 µM
GI50 [41]: 3.74 µM
TGI [41]: 16.8 µM
GI50 [42]: 5.33 µM
TGI [42]: 25.9 µM
GI50 [43]: 18.7 µM
TGI [43]: > 100 µM
GI50 [44]: 3.03 µM
TGI [44]: 11.4 µM
GI50 [45]: 6.63 µM
TGI [45]: 20.1 µM
GI50 [46]: 1.77 µM
TGI [46]: 3.61 µM
GI50 [47]: 10.5 µM
TGI [47]: 37.9 µM
GI50 [48]: 5.36 µM
TGI [48]: > 100 µM
GI50 [49]: 2.08 µM
TGI [49]: 4.41 µM
GI50 [50]: 1.84 µM
TGI [50]: 3.97 µM
GI50 [51]: 4.15 µM
TGI [51]: > 100 µM
GI50 [52]: 2.88 µM
TGI [52]: 10.2 µM
GI50 [53]: 12.7 µM
TGI [53]: 27.6 µM
GI50 [54]: 20.8 µM
TGI [54]: 48.3 µM
GI50 [55]: 1.75 µM
TGI [55]: 4.77 µM
GI50 [56]: 19.3 µM
TGI [56]: 58.8 µM
GI50 [57]: 9.57 µM
TGI [57]: 23.9 µM
GI50 [58]: 1.85 µM
TGI [58]: 4.61 µM
GI50 [59]: 2.61 µM
TGI [59]: 13.2 µM
